Data: paper PMC4970648, “Studies on 16α-Hydroxylation of Steroid Molecules and Regioselective Binding Mode in Homology-Modeled Cytochrome P450-2C11” (International Journal of Medicinal Chemistry, 2010)

molecular target: [3H]PROG 16α-hydroxylating activity by male rat liver microsomes (CYP2C11) (Rattus norvegicus, UniProt P08683); assay: Inhibition of [3H]progesterone 16α-hydroxylation by adult male rat liver microsomes; conditions: 40% inhibition not reached at 10 μM of unlabeled steroid; male rat liver microsomes
Description: Approximately 95-day-old male Wistar rats, castrated on the 70th day after birth, were used. The liver microsomes were prepared as previously described. The experiments were performed according to instrumental guidelines for the care and use of laboratory animals.
The metabolism by rat liver microsomes were examined, according to our previously described procedure. Briefly, the microsomal suspension (400–600 μg of protein/2.2 mL, total volume of the reaction mixture) was preincubated with [3H]PROG (20 nM) under the absence or presence of an unlabeled steroid (0.01–10 μM) at 36°C for 30 min. […] After the incubation, two identical samples were mixed and extracted with toluene. The toluene-extractable [3H]PROG metabolites (more than 90%) were isolated by various paper chromatographic systems and then identified by recrysallization method. Other miscellaneous procedures are described in our previous papers.

Sequence of [3H]PROG 16α-hydroxylating activity by male rat liver microsomes (CYP2C11) (P08683 whole entry): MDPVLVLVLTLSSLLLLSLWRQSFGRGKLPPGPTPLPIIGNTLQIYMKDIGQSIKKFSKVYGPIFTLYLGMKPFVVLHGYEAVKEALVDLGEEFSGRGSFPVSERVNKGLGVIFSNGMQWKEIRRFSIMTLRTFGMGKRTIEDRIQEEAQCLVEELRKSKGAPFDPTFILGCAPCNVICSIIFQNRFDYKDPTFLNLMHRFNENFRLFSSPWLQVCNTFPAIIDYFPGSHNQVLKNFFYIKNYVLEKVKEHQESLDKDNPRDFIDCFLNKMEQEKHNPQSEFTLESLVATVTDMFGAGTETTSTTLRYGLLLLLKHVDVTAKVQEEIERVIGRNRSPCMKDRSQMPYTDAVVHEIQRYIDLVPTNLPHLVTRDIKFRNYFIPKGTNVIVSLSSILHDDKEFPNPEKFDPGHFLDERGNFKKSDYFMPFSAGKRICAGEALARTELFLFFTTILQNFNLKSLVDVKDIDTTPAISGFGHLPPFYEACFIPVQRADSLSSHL

SMILES	[3H]PROG16α-hydroxylation (IC40), given as bound in μM
CC(C)CCC[C@@H](C)[C@H]1CC[C@H]2[C@@H]3CC=C4C[C@@H](O)CC[C@]4(C)[C@H]3CC[C@]12C [compound 26, Cholesterol]	>10 µM
C[C@]12C[C@H](O)[C@H]3[C@@H](CCC4=CC(=O)CC[C@@]43C)[C@@H]1CC[C@@H]2C(=O)CO [compound 16, Corticosterone]	>10 µM
CC(=O)[C@H]1CC[C@H]2[C@@H]3CCC4=CC(=O)CC[C@]4(C)[C@H]3[C@H](O)C[C@]12C [compound 5, 11α-Hydroxyprogesterone]	>10 µM
CC(=O)[C@H]1[C@H](C)C[C@H]2[C@@H]3CCC4=CC(=O)CC[C@]4(C)[C@H]3CC[C@@]21C [compound 9, 16α-Methylprogesterone]	>10 μM ^d
C[C@H](O)[C@H]1CC[C@H]2[C@@H]3CCC4=CC(=O)CC[C@]4(C)[C@H]3CC[C@]12C [compound 13, 20α-Hydroxyprogesterone]	>10 µM
CC(=O)[C@H]1[C@H](O)C[C@H]2[C@@H]3CCC4=CC(=O)CC[C@]4(C)[C@H]3CC[C@@]21C [compound 8, 16α-Hydroxyprogesterone]	>10 µM
C[C@]12CC[C@H]3[C@@H](CCC4=CC(=O)CC[C@@]43C)[C@@H]1CC[C@@H]2C(=O)CO [compound 14, 21-Hydroxyprogesterone]	>10 µM
CC(=O)OCC(=O)C1CCC2C3CCC4=CC(=O)CCC4(C)C3CCC12C (stereo not drawn) [compound 15, 21-Acetoxyprogesterone]	>10 µM
C[C@H](O)[C@H]1CC[C@H]2[C@@H]3CC=C4C[C@@H](O)CC[C@]4(C)[C@H]3CC[C@]12C [compound 21, 20α-Hydroxypregnenolone]	>10 µM
CC(=O)[C@H]1CC[C@H]2[C@@H]3CCC4=CC(=O)CC[C@]4(C)[C@H]3[C@@H](O)C[C@]12C [compound 7, 11β-Hydroxyprogesterone]	>10 µM
CC(=O)[C@H]1CC[C@H]2[C@@H]3C[C@@H](O)C4=CC(=O)CC[C@]4(C)[C@H]3CC[C@]12C [compound 3, 6β-Hydroxyprogesterone]	>10 μM^c
CC(=O)O[C@H]1CC[C@H]2[C@@H]3CCC4=CC(=O)CC[C@]4(C)[C@H]3CC[C@]12C [compound 42, 17β-Acetoxytestosterone]	>10 µM
CC(=O)[C@H]1CC[C@H]2[C@@H]3CCC4=CC(=O)CC[C@@H]4[C@H]3CC[C@]12C [compound 12, 19-Norprogesterone]	>10 µM
CC(=O)[C@H]1CC[C@H]2[C@@H]3CC[C@H]4C[C@H](OS(=O)(=O)O)CC[C@]4(C)[C@H]3CC[C@]12C [compound 31, 3α-Sulfate-5 α -pregnan-20-one]	>10 µM
CC(=O)O[C@@H]1C[C@]2(C)[C@@H](C(C)=O)CC[C@H]2[C@@H]2CCC3=CC(=O)CC[C@]3(C)[C@H]21 [compound 6, 11α-Acetoxyprogesterone]	>10 µM

same assay, conditions: molar concentration of unlabeled steroid causing 40% inhibition; [3H]PROG 20 nM; unlabeled steroid 0.01–10 μM; male rat liver microsomes

SMILES	[3H]PROG16α-hydroxylation (IC40) [nM]
C[C@]12CC[C@@H](O)C[C@H]1CC[C@@H]1[C@@H]2CC[C@]2(C)[C@@H](O)CC[C@@H]12 [compound 66, 5β-Androstan-3 α,17 β -diol]	69
C[C@]12CC[C@@H](O)C[C@@H]1CC[C@@H]1[C@@H]2CC[C@]2(C)[C@@H](O)CC[C@@H]12 [compound 62, 5α-Androstan-3α,17β-diol]	125
CC(=O)O[C@@H]1CC[C@@]2(C)[C@@H](CC[C@@H]3[C@@H]2CC[C@]2(C)[C@@H](C(C)=O)CC[C@@H]32)C1 [compound 30, 3α-Acetoxy-5 α -pregnan-20-one]	410
C[C@@]12CCC[C@H]1[C@@H]1CC[C@@H]3C[C@H](O)CC[C@]3(C)[C@H]1CC2 [compound 50, 5β-Androstan-3α-ol]	510
C[C@]12CC[C@H](O)C[C@H]1CC[C@@H]1[C@@H]2CC[C@]2(C)[C@@H](O)CC[C@@H]12 [compound 69, 5β-Androstan-3β,17β-diol]	320
COC(=O)[C@@H]1C[C@@H](O)C[C@H]2CC[C@H]3[C@@H]4CCC[C@@]4(C)CC[C@@H]3[C@]21C [compound 68, 5β-Androstan-3α-ol-1β-carboxylic acid methyl ester]	43
CC(=O)[C@H]1CC[C@H]2[C@@H]3CCC4=CC(=O)CC[C@]4(C)[C@H]3CC[C@]12C [compound 1, Progesterone]	755
CC(=O)[C@H]1CC[C@H]2[C@@H]3CC[C@@H]4C[C@@H](O)CC[C@]4(C)[C@H]3CC[C@]12C [compound 34, 3β-Hydroxy-5 β -pregnan-20-one]	170
CC(=O)[C@H]1CC[C@H]2[C@@H]3CCC4=C[C@@H](O)CC[C@]4(C)[C@H]3CC[C@]12C [compound 2, 3β-Hydroxyprogesterone]	255
CC(=O)[C@H]1CC[C@H]2[C@@H]3CC[C@H]4CC(=O)CC[C@]4(C)[C@H]3CC[C@]12C [compound 27, 5α-Pregnan-3,20-dione]	720
C[C@@]12CCC[C@H]1[C@@H]1CC[C@@H]3C[C@@H](O)CC[C@]3(C)[C@H]1CC2 [compound 51, 5β-Androstan-3β-ol]	160
CC(=O)[C@H]1CC[C@H]2[C@@H]3CC[C@H]4C[C@H](O)CC[C@]4(C)[C@H]3CC[C@]12C [compound 29, 3α-Hydroxy-5 α -pregnan-20-one]	62
CC(=O)O[C@H]1CC[C@@]2(C)C(=CC[C@H]3[C@@H]4CC[C@H](C(C)=O)[C@@]4(C)CC[C@@H]32)C1 [compound 18, Pregnenolone-3-acetate]	800
COC(=O)[C@H]1CC[C@H]2[C@@H]3CCC4=CC(=O)CC[C@]4(C)[C@H]3CC[C@]12C [compound 40, 4-Androsten-3-one;17-β-carboxylaic acid methyl ester]	801
CC(=O)OCC(=O)[C@H]1CC[C@H]2[C@@H]3CC=C4C[C@@H](O)CC[C@]4(C)[C@H]3CC[C@]12C [compound 23, 21-Acetoxypregnenolone]	600
CC(=O)[C@H]1CC[C@H]2[C@@H]3CC=C4C[C@@H](O)CC[C@]4(C)[C@H]3CC[C@]12C [compound 17, Pregnenolone]	142
CC(=O)[C@H]1CC[C@H]2[C@@H]3CC[C@H]4C[C@@H](O)CC[C@]4(C)[C@H]3CC[C@]12C [compound 32, 3β-Hydroxy-5 α -pregnan-20-one]	225
C[C@]12CC[C@H]3[C@@H](CCC4=CC(=O)CC[C@@]43C)[C@@H]1CC[C@@H]2O [compound 41, Testosterone]	1450
CC(=O)O[C@H]1CC[C@H]2[C@@H]3CC[C@H]4C[C@H](O)CC[C@]4(C)[C@H]3CC[C@]12C [compound 63, 5α-Androstan-3α,17β-diol-17-acetate]	300
C[C@]12CCC(=O)C[C@@H]1CC[C@@H]1[C@@H]2CC[C@]2(C)C(=O)CC[C@@H]12 [compound 54, 5α-Androstan-3,17-dione]	650
CC(=O)[C@H]1CC[C@H]2[C@@H]3CC[C@H]4C[C@H](O)CC[C@]4(C)[C@H]3[C@@H](O)C[C@]12C [compound 35, 3α,11β-Dihydroxy-5α-pregnan-20-one]	150
C[C@@]12CCC[C@H]1[C@@H]1CC[C@H]3C[C@@H](O)CC[C@]3(C)[C@H]1CC2 [compound 49, 5α-Androstan-3β-ol]	650
C[C@@]12CCC[C@H]1[C@@H]1CC[C@H]3C[C@H](O)CC[C@]3(C)[C@H]1CC2 [compound 48, 5α-Androstan-3α-ol]	1030
C[C@]12CC[C@@H](O)C[C@H]1CC[C@@H]1[C@@H]2CC[C@]2(C)[C@@H](C(=O)O)CC[C@@H]12 [compound 67, 5β-Androstan-3α-ol-17β-carboxylic acid]	360
C[C@]12CCC(=O)C=C1CC[C@@H]1[C@@H]2CC[C@]2(C)C(=O)CC[C@@H]12 [compound 38, 4-Androsten-3,17-dione]	1000
CC(=O)C1CCC2C3CC=C4CC(OS(=O)(=O)O)CCC4(C)C3CCC12C (stereo not drawn) [compound 19, Pregnenolone-3-sulfate]	195
C[C@]12CC[C@H](O)C[C@@H]1CC[C@@H]1[C@@H]2CC[C@]2(C)[C@@H](O)CC[C@@H]12 [compound 65, 5α-Androstan-3β,17β-diol]	1110
